{"source": "patent US20260130377A1", "about": "(SYNGENTA CROP PROTECTION AG, priority 2022, published 2026)", "key": {"Fusarium culmorum": {"system": "Fusarium culmorum", "assay": "liquid culture assay, 96 well plate, Fusarium culmorum", "format": "cell-based", "experimental": "(§1) Cyclothiazomycin C was produced as disclosed in WO2015191789. A stock solution for cyclothiazomycin C was produced in DMSO (max. 10 mg/ml). Malonomicin was produced according to Law et al, 2018 (Nature Catalys is|VOL 1|DECEMBER 2018|977-984). A stock solution of malonomicin was produced in water plus 0.025% Tween®20.\n(§2) Assays to test efficacy of mixtures of cyclothiazomycin C in combination with malonomicin on the control of fungal pathogens in a liquid culture assay were designed for a 96 well plate.\n(§3) A master plate with 10× concentrated solution of the compound stock solutions diluted in water plus 0.025% Tween20 was prepared. The concentration of DMSO (from the stock of cyclothiazomycin C) and Tween20 was kept constant in all cells of th the master plate. 10 μl was transferred from the master plate to a 96 well test plate. The nutrient broth containing the fungal spores/mycelia fragments was then added to the test plate to give an end concentration of 1× for the tested compounds (as outlined in Table 1). The test plates were incubated in the dark at 24° C. and 96% rh. The inhibition of fungal growth was determined photometrically after ca. 3 days, and percent fungal growth reduction relative to the untreated check was calculated. Efficacy of the mixtures was tested on different fungal species:\nFusarium culmorum (EPPO Code: FUSACU)\n(§4) Conidia of the fungus from cryogenic storage were directly mixed into nutrient broth (PDB: potato dextrose broth)."}, "Puccinia recondita [1]": {"system": "Puccinia recondita", "assay": "wheat leaf disc assay, Puccinia recondita, curative spray timing", "format": "in vivo", "experimental": "(§5) Cyclothiazomycin C was produced as disclosed in WO2015191789. A stock solution for cyclothiazomycin C was produced in DMSO (max. 10 mg/ml). Malonomicin was produced according to Law et al, 2018 (Nature Catalys is|VOL 1|DECEMBER 2018|977-984). A stock solution of malonomicin was produced in water plus 0.025% Tween20.\n(§6) Assays to test efficacy of mixtures of cyclothiazomycin C in combination with malonomicin on the control of fungal pathogens in a leaf disc assay were designed for two plates.\n(§7) A first set of master plates with 1× concentrated spray solution of the cyclothiazomycin C stock diluted in water with concentrations according to Table 11 or Table 12, respectively, was prepared. Each well contained 2% DMSO and 0.025% Tween20. Accordingly, a second set of master plates with 1× concentrated malonomicin stock diluted in water was prepared. Each well of the second set contained 0.025% Tween20. Leaf segments placed on agar in plates are sprayed with 8 ul of solution from the master plate containing cyclothiazomycin C and the leaf segments were let to dry, followed 2 hours later by 8 ul of solution from the master plate containing malonomicin. After second sprays have dried, leaf segments are infected with fungal spores to obtain a preventive application timing. Alternatively, leaf segments infected one day before spray of the compounds are used, resulting in a curative spray timing. In addition, several plates were produced where leaf segments were sprayed 2× in absence of test compound (with only DMSO and Tween20), representing the untreated check samples. For each leaf segment percent leaf coverage of disease symptoms was assessed. Percent leaf coverage reduction relative to the untreated check was calculated. Efficacy of the mixtures was tested in duplicate. Reported efficacy values are the average of two replicate results.\nPuccinia recondita (EPPO Code: PUCCRE) with Curative Spray Timing.\nWheat (cultivar Kanzler) leaf segments are placed on agar in multiwell plates. The leaf disks are then inoculated with a spore suspension of the fungus. One day after inoculation the test solution is sprayed (8 ul per well). After appropriate incubation the activity of a compound is assessed 8 dpi (days after inoculation) as curative fungicidal activity"}, "Botrytis cinerea": {"system": "Botrytis cinerea", "assay": "liquid culture assay, 96 well plate, Botrytis cinerea", "format": "cell-based", "experimental": "as §1, §2, §3\nBotrytis cinerea (EPPO Code: BOTRCI)\nConidia of the fungus from cryogenic storage were directly mixed into nutrient broth (Vogel's minimal media)."}, "Puccinia recondita [2]": {"system": "Puccinia recondita", "assay": "wheat leaf disc assay, Puccinia recondita, preventive spray timing", "format": "in vivo", "experimental": "as §5, §6, §7\nPuccinia recondita (EPPO Code: PUCCRE) with Preventive Spray Timing.\nWheat (cultivar Kanzler) leaf segments are placed on agar in multiwell plates and sprayed with test solutions (8 ul per well). After drying, the leaf disks are inoculated with a spore suspension of the fungus. After appropriate incubation the activity of a compound is assessed 8 dpi (days after inoculation) as preventive fungicidal activity."}, "Microdochium nivale": {"system": "Microdochium nivale", "assay": "liquid culture assay, 96 well plate, Microdochium nivale", "format": "cell-based", "experimental": "as §1, §2, §3\nMicrodochium nivale (EPPO Code: MONGNI)\nas §4"}, "[3]": {"system": "a variety of fungal strains", "conditions": "quoted from WO2015191789, page 31; cited from earlier work"}, "Zymoseptoria tritici": {"system": "Zymoseptoria tritici", "assay": "liquid culture assay, 96 well plate, Zymoseptoria tritici", "format": "cell-based", "experimental": "as §1, §2, §3\nZymoseptoria tritici (EPPO Code: SEPTTR)\nas §4"}, "genus Bacillus": {"system": "genus Bacillus", "conditions": "quoted from WO2015191789, page 31; cited from earlier work"}, "[4]": {"conditions": "cyclothiazomycin C 1.56 ppm solo"}, "[5]": {"conditions": "cyclothiazomycin C 3.125 ppm solo"}, "[6]": {"conditions": "cyclothiazomycin C 6.25 ppm solo"}, "[7]": {"conditions": "cyclothiazomycin C 12.5 ppm solo"}, "[8]": {"conditions": "cyclothiazomycin C 100 ppm solo"}, "[9]": {"conditions": "cyclothiazomycin C 3.13 ppm solo"}, "[10]": {"conditions": "cyclothiazomycin C 200 ppm solo"}}}
{"compound": "C=C1NC(=O)CNC(=O)[C@H](CCCCN)NC(=O)[C@@]2(C)NC(=O)/C(=C/C)NC(=O)[C@H]3CSC(=N3)[C@@H](CC(N)=O)NC(=O)c3ccc(nc3[C@@H](C)NC(=O)[C@@H]3CCCN3C1=O)-c1nc(cs1)C1=N[C@H](CS1)C(=O)NC(=C)c1nc(cs1)-c1nc(cs1)C1=N[C@@H](CS1)C(=O)N[C@@H](C(=O)O)CS2", "note": "[cyclothiazomycin C]", "values": [{"measurement": "control of fungal growth", "setting": "Fusarium culmorum; [4]", "value": 20, "unit": "%"}, {"measurement": "control of fungal growth", "setting": "Fusarium culmorum; [5]", "value": 20, "unit": "%"}, {"measurement": "control of fungal growth", "setting": "Fusarium culmorum; [6]", "value": 20, "unit": "%"}, {"measurement": "control of fungal growth", "setting": "Fusarium culmorum; [7]", "value": 20, "unit": "%"}, {"measurement": "control of fungal growth", "setting": "Fusarium culmorum; cyclothiazomycin C 25 ppm solo", "value": 20, "unit": "%"}, {"measurement": "control of fungal growth", "setting": "Fusarium culmorum; cyclothiazomycin C 50 ppm solo", "value": 20, "unit": "%"}, {"measurement": "control of fungal growth", "setting": "Fusarium culmorum; [8]", "value": 20, "unit": "%"}, {"measurement": "control of fungal growth (% reduction of symtoms on the leaf segment)", "setting": "Puccinia recondita [1]; [9]", "value": 0, "unit": "%"}, {"measurement": "control of fungal growth (% reduction of symtoms on the leaf segment)", "setting": "Puccinia recondita [1]; [6]", "value": 10, "unit": "%"}, {"measurement": "control of fungal growth (% reduction of symtoms on the leaf segment)", "setting": "Puccinia recondita [1]; [7]", "value": 0, "unit": "%"}, {"measurement": "control of fungal growth (% reduction of symtoms on the leaf segment)", "setting": "Puccinia recondita [1]; cyclothiazomycin C 25 ppm solo", "value": 0, "unit": "%"}, {"measurement": "control of fungal growth (% reduction of symtoms on the leaf segment)", "setting": "Puccinia recondita [1]; cyclothiazomycin C 50 ppm solo", "value": 0, "unit": "%"}, {"measurement": "control of fungal growth (% reduction of symtoms on the leaf segment)", "setting": "Puccinia recondita [1]; [8]", "value": 0, "unit": "%"}, {"measurement": "control of fungal growth (% reduction of symtoms on the leaf segment)", "setting": "Puccinia recondita [1]; [10]", "value": 0, "unit": "%"}, {"measurement": "control of fungal growth", "setting": "Botrytis cinerea; [4]", "value": 20, "unit": "%"}, {"measurement": "control of fungal growth", "setting": "Botrytis cinerea; [5]", "value": 20, "unit": "%"}, {"measurement": "control of fungal growth", "setting": "Botrytis cinerea; [6]", "value": 20, "unit": "%"}, {"measurement": "control of fungal growth", "setting": "Botrytis cinerea; [7]", "value": 20, "unit": "%"}, {"measurement": "control of fungal growth", "setting": "Botrytis cinerea; cyclothiazomycin C 25 ppm solo", "value": 20, "unit": "%"}, {"measurement": "control of fungal growth", "setting": "Botrytis cinerea; cyclothiazomycin C 50 ppm solo", "value": 20, "unit": "%"}, {"measurement": "control of fungal growth", "setting": "Botrytis cinerea; [8]", "value": 20, "unit": "%"}, {"measurement": "control of fungal growth (% reduction of symtoms on the leaf segment)", "setting": "Puccinia recondita [2]; [9]", "value": 0, "unit": "%"}, {"measurement": "control of fungal growth (% reduction of symtoms on the leaf segment)", "setting": "Puccinia recondita [2]; [6]", "value": 0, "unit": "%"}, {"measurement": "control of fungal growth (% reduction of symtoms on the leaf segment)", "setting": "Puccinia recondita [2]; [7]", "value": 10, "unit": "%"}, {"measurement": "control of fungal growth (% reduction of symtoms on the leaf segment)", "setting": "Puccinia recondita [2]; cyclothiazomycin C 25 ppm solo", "value": 95, "unit": "%"}, {"measurement": "control of fungal growth (% reduction of symtoms on the leaf segment)", "setting": "Puccinia recondita [2]; cyclothiazomycin C 50 ppm solo", "value": 95, "unit": "%"}, {"measurement": "control of fungal growth (% reduction of symtoms on the leaf segment)", "setting": "Puccinia recondita [2]; [8]", "value": 95, "unit": "%"}, {"measurement": "control of fungal growth (% reduction of symtoms on the leaf segment)", "setting": "Puccinia recondita [2]; [10]", "value": 100, "unit": "%"}, {"measurement": "control of fungal growth", "setting": "Microdochium nivale; [4]", "value": 70, "unit": "%"}, {"measurement": "control of fungal growth", "setting": "Microdochium nivale; [5]", "value": 70, "unit": "%"}, {"measurement": "control of fungal growth", "setting": "Microdochium nivale; [6]", "value": 70, "unit": "%"}, {"measurement": "control of fungal growth", "setting": "Microdochium nivale; [7]", "value": 70, "unit": "%"}, {"measurement": "control of fungal growth", "setting": "Microdochium nivale; cyclothiazomycin C 25 ppm solo", "value": 90, "unit": "%"}, {"measurement": "control of fungal growth", "setting": "Microdochium nivale; cyclothiazomycin C 50 ppm solo", "value": 90, "unit": "%"}, {"measurement": "control of fungal growth", "setting": "Microdochium nivale; [8]", "value": 90, "unit": "%"}, {"measurement": "growth inhibitory action toward a variety of fungal strains", "setting": "[3]", "value": "none was observed"}, {"measurement": "control of fungal growth", "setting": "Zymoseptoria tritici; [4]", "value": 70, "unit": "%"}, {"measurement": "control of fungal growth", "setting": "Zymoseptoria tritici; [5]", "value": 70, "unit": "%"}, {"measurement": "control of fungal growth", "setting": "Zymoseptoria tritici; [6]", "value": 70, "unit": "%"}, {"measurement": "control of fungal growth", "setting": "Zymoseptoria tritici; [7]", "value": 70, "unit": "%"}, {"measurement": "control of fungal growth", "setting": "Zymoseptoria tritici; cyclothiazomycin C 25 ppm solo", "value": 90, "unit": "%"}, {"measurement": "control of fungal growth", "setting": "Zymoseptoria tritici; cyclothiazomycin C 50 ppm solo", "value": 90, "unit": "%"}, {"measurement": "control of fungal growth", "setting": "Zymoseptoria tritici; [8]", "value": 100, "unit": "%"}, {"measurement": "antimicrobial inhibitory activity", "setting": "genus Bacillus", "value": "greatest inhibitory activity"}]}
